Experimental data as given in patent US6127360A, “Diamine derivatives and pharmaceutical containing the same” (Kowa Co., Ltd., priority 1997, dated 2000).

Key:
[1] = target: T1, isolated guinea pig ileum (Cavia porcellus, UniProt Q2NNR5); experiment: Anti-LTD4 action on isolated guinea pig ileum (LTD4 contraction); type: cell-based; conditions: 10^-5 M test compound; contraction caused by 10^-8 M LTD4; read-out: Anti-LTD4 action (inhibition rate)
T1 construct: An isolated guinea pig ileum was cut into about 2 cm lengths; from tissue; host or cells: guinea pig ileum
T1 sequence (Q2NNR5 1-340): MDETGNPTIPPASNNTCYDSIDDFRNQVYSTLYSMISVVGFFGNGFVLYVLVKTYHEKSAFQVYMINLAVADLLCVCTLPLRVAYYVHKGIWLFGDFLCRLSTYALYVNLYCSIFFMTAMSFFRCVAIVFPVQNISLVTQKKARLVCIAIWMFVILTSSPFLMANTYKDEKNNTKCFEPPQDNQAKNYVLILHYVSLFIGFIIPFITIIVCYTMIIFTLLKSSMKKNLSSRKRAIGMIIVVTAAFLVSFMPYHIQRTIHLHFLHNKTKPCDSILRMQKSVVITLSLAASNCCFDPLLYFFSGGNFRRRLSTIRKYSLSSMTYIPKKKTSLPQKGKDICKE
Protocol: Antihistaminic Action and Anti-LTD4 Action (In vitro Tests)
An isolated guinea pig ileum was cut into about 2 cm lengths. Each ileum piece was suspended in a 20-ml container filled with the Tyrode's buffer. An isotonic contractive response by histamine or LTD4 was recorded on a recorder. The Tyrode's buffer was controlled at 30° C., through which a mixed gas (95%O2 -5%CO2) was bubbled.

H1 receptor = target: T2, H1 receptor (Cavia porcellus, UniProt P31389); experiment: H1 Receptor Binding Inhibition Test ([3H]mepyramin, guinea pig cerebromembranous protein); conditions: read-out: H1 receptor dissociation constant (KD)
T2 construct: guinea pig cerebromembranous protein and a test compound; from tissue; host or cells: guinea pig brain membranes
Protocol: H1 Receptor Binding Inhibition Test
An ice-cold phosphate buffer was added to terminate the reaction, followed by immediate filtration through a Wattman CF/C filter. The filter was washed twice with 20 ml aliquots of the ice-cold buffer. The radio-activity of the residue was measured by a liquid scintillation counter. From a measurement value obtained without the addition of the test compound and measurements values obtained upon addition of the test compound at various concentrations, the dose-response of the inhibitory action of the test compound was measured and the 50% inhibitory concentration (IC50) was determined. Using the Cheng-Prusoff formula, a dissociation constant (KD) was calculated from the 50% inhibitory concentration (IC50).
In a binding assay, 10^4 M R(-)dimethindene was used for the measurement of a nonspecific binding.

LTD4 receptor = target: T3, LTD4 receptor (Cavia porcellus, UniProt Q2NNR5); experiment: LTD4 Receptor Binding Inhibition Test ([3H]LTD4, guinea pig pulmomembranous protein); conditions: read-out: LTD4 receptor dissociation constant (KD)
T3 construct: guinea pig pulm-omembranous protein and a test compound; from tissue; host or cells: guinea pig lung membranes
T3 sequence (Q2NNR5 1-340): T1 sequence (Q2NNR5 1-340)
Protocol: LTD4 Receptor Binding Inhibition Test
An ice-cold tris hydrochloride/sodium chloride buffer (10 mM/100 mM, pH 7.5) was added to terminate the reaction, followed by immediate filtration through a Wattman CF/C filter. The filter was washed twice with 20 ml aliquots of the ice-cold buffer. The radioactivity of the residue was measured by a liquid scintillation counter.
In a binding assay, […] LTD4 was used for the measurement of a nonspecific binding.

H1 = target: T4, H1 (Mus musculus, UniProt P70174); experiment: Brain Penetration Test (ex vivo [3H]mepyramin binding in mouse brain); conditions: ip; for ED50: peritoneal administration to mouse, brain taken 1 hour after, [3H]mepyramin 0.5 nM, read-out: IC50 (50% inhibitory dose), ex vivo; for selectivity ratio at 1 h: mouse, brain, IC50 (mg/kg)/H1 binding inhibition dissociation constant (nM), read-out: BP index
T4 construct: from tissue; host or cells: mouse brain homogenate, ex vivo after intraperitoneal dosing
Protocol: Described specifically, to a mouse of 20 g to 23 g, a test compound of a given concentration was peritoneally administered. Upon elapsed time of one hour after the administration, the mouse was sacrificed. The brain tissue was taken out, and was then homogenated with a 30 mM Na,K phosphate buffer (pH 7.5) to give 40 ml/g wet weight. […] Subsequent to incubation at 37° C. for 50 minutes, an ice-cold phosphate buffer was added to terminate the reaction. Each of the resulting mixtures was immediately filtered through Wattman CF/C filter. The filter was washed twice with 20 ml aliquots of the ice-cold buffer. The radioactivity of the residue was measured by a liquid scintillation counter. […] A BP index as an index of brain penetration was calculated in accordance with the following formula:
BP index=IC50 (mg/kg)/H1 binding inhibition dissociation constant (nM)

T4 sequence (P70174 whole entry): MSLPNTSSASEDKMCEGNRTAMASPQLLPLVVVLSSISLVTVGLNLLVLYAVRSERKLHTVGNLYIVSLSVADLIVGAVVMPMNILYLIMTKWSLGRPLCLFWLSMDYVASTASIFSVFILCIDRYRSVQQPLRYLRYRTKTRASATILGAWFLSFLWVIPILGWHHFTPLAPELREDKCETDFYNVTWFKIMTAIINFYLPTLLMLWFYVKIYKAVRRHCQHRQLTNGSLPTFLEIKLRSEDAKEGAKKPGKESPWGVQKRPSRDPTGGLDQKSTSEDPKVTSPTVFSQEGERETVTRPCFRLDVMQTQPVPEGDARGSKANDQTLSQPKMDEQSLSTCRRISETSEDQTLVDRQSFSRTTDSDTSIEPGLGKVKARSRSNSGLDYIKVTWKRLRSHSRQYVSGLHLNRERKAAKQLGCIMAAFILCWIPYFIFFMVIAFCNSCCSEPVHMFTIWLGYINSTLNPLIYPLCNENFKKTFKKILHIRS
T2 sequence (P31389 whole entry): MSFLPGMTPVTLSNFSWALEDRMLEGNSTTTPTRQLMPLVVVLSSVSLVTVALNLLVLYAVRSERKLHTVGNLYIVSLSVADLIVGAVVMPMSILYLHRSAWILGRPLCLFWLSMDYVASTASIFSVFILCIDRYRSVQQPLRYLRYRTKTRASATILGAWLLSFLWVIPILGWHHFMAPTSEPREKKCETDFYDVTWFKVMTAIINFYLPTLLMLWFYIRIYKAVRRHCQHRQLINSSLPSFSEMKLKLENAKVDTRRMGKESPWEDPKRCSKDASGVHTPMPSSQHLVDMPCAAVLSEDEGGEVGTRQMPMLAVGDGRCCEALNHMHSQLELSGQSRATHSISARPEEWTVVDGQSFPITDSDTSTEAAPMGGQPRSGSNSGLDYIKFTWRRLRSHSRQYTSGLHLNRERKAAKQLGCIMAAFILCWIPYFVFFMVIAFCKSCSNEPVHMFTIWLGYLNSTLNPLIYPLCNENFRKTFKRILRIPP

inhibition at 10 µM [1] [%] | Ki (H1 receptor) [µM] | Ki (LTD4 receptor) [µM] | ED50 (H1) [mg/kg] | Structure (SMILES) | selectivity ratio at 1 h (H1)
16 | 0.00501 | 9.41 | 8.5 | O=C1CSc2cc(OCCCN3CCN(Cc4ccc5ccccc5n4)CC3)ccc2N1 [Example 90, 7-{3-[4-(2-quinolylmethyl)piperazinyl]propoxy}-3,4-dihydro-2H-1,4-benzothiazin-3-one] | 1.7
– | – | – | 10 | Cc1ccc(OCCCN2CCN(Cc3ccc4ccccc4n3)CC2)c2c1NC(=O)CC2 [Example 91, 8-methyl-5-{3-[4-(2-quinolylmethyl)piperazinyl]propoxy}-1,2,3,4-tetrahydroquinolin-2-one] | 35.7
42 | 0.0557 | 4.23 | 16.5 | Cc1ccc(OCCCN2CCN(Cc3ccc4ccccc4n3)CC2)c2c1NC(=O)C2(C)C [Example 92] | 0.29
